In article PMC4183655, “Discovery and Optimization of Small-Molecule Ligands for the CBP/p300 Bromodomains” (Journal of the American Chemical Society, 2014):
Like-named read-outs stand apart in the source and are kept apart here.

How the values were obtained:
p53–CBP interaction = settings: at 50 μM; cited from earlier work
CBP BRD = settings: cited from earlier work
[1] = tested on: p53-induced p21 activation; settings: luciferase reporter-gene assay; read-out: Inhibition of p53-induced p21 activation IC50; cited from earlier work
CBP [2] = settings: cited from earlier work
BRD4(1) [3] = settings: cited from earlier work
[4] = tested on: GFP-tagged 3 × CBP BRD construct; test: Fluorescence recovery after photo-bleaching (FRAP) assay; settings: HeLa cells, SAHA-treated, compound 0.1 μM
BRD4(1) [5] = target: T1, BRD4(1) (Homo sapiens, UniProt O60885); test: DSF (ΔTm) thermal stability assay; assay type: binding; settings: compound concentration 10 μM, mean ± SEM (number of measurements)
CBP [6] = target: T2, CBP (Homo sapiens, UniProt Q92793); test: DSF (ΔTm) thermal stability assay; assay type: binding; settings: compound concentration 10 μM, mean ± SEM (number of measurements)
CBP [7] = target: T2, CBP; test: Peptide displacement AlphaScreen; assay type: binding
BRD4(1) [8] = target: T1, BRD4(1); test: Peptide displacement AlphaScreen; assay type: binding
ATAD2 [9] = target: T3, ATAD2 (Homo sapiens, UniProt Q6PL18); test: DSF (ΔTm) thermal stability assay; assay type: binding; settings: compound 10 µM
T3 construct: using recombinant BRDs as surrogates of full-length protein
T3 sequence (Q6PL18 980-1092 limits assumed): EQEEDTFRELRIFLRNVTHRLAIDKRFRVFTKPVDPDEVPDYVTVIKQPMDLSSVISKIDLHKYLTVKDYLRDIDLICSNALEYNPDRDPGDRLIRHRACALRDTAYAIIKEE

BRD4(1) [10] = target: T1, BRD4(1); test: Isothermal titration calorimetry (ITC)
ATAD2 [11] = target: T3, ATAD2; test: Peptide displacement AlphaScreen; assay type: binding
p300 = target: T4, p300 (Homo sapiens, UniProt Q09472); test: Isothermal titration calorimetry (ITC); settings: from ITC Kd values
T4 sequence (Q09472 1049-1156 limits assumed): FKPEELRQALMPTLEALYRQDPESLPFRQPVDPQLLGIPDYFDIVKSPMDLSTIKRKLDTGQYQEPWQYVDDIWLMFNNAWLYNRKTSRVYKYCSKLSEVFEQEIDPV

CBP [12] = target: T2, CBP; test: Isothermal titration calorimetry (ITC)
[13] = mean ± SEM (number of measurements), read-out: CBP AlphaScreen pIC50 (converted)

T2 sequence (Q92793 1085-1192 limits assumed): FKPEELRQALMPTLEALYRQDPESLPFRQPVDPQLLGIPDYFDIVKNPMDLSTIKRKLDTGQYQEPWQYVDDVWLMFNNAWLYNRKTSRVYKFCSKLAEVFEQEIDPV

Q: With CC(=O)n1c2c(c3ccccc31)CCCC2=O [Compound 1] as the molecule, how does the “Effect on the p53–CBP interaction in a competition assay” value (p53–CBP interaction) read?
A: block

Q: What about the Kd (CBP BRD) of the same molecule?
A: 19.6 µM

Q: With Cc1cc(/N=N/c2cc(S(=O)(=O)O)c(C)cc2C)c(N)cc1O [Compound 2] as the molecule, how does the IC50 [1] read?
A: 5 µM

Q: For COc1ccc2c(c1)N(CCCNC(=O)c1cccc3c1N[C@H](C)C(=O)N3)CCC2 [Compound 4], which Kd (CBP BRD) is on record?
A: 0.39 µM

Q: With Cc1noc(C)c1-c1ccc2nc[nH]c2c1 [Compound 5] as the molecule, how does the “CBP pIC50” value (CBP [2]) read?
A: 5.4

Q: And the “BRD4(1) pIC50” value (BRD4(1) [3])?
A: 5.2

Q: For Cc1noc(C)c1-c1ccc2ncn(Cc3ccc(C#N)cc3)c2c1 [Compound 6], which “FRAP half-time of fluorescence recovery (t1/2), GFP-tagged 3× CBP BRD” value [4] is on record?
A: 0.74 s

Q: And the “CBP pIC50” value (CBP [2])?
A: < 4.0

Q: What about the “BRD4(1) pIC50” value (BRD4(1) [3]) of the same molecule?
A: 6.7

Q: For Cc1noc(C)c1-c1ccc2c(c1)ncn2Cc1ccc(Cl)cc1 [Compound 7], which “CBP pIC50” value (CBP [2]) is on record?
A: 5.7

Q: With Cc1noc(C)c1-c1ccc2c(c1)nc(CC(C)(C)C)n2CCN(C)C [Compound 8] as the molecule, how does the ΔTm at 10 µM (BRD4(1) [5]) read?
A: 3.2 °C

Q: And the ΔTm at 10 µM (CBP [6])?
A: 4.5 °C

Q: What about the IC50 (CBP [7]; [13]) of the same molecule?
A: 0.501 µM

Q: For Cc1noc(C)c1-c1ccc2c(c1)nc(CCc1ccccc1)n2CCN(C)C [Compound 12], which ΔTm at 10 µM (BRD4(1) [5]) is on record?
A: 2.9 °C

Q: And the ΔTm at 10 µM (CBP [6])?
A: 6.3 °C

Q: What about the IC50 (CBP [7]; [13]) of the same molecule?
A: 0.501 µM

Q: Which ΔTm at 10 µM (CBP [6]) does the source give for COC(Cn1c(CCc2ccccc2)nc2cc(-c3c(C)noc3C)ccc21)OC [Compound 13] here?
A: 0.27 °C

Q: What about the IC50 (CBP [7]; read-out: AlphaScreen IC50 CBP) of the same molecule?
A: 460 µM

Q: With Cc1noc(C)c1-c1ccc2c(c1)nc(CCc1ccccc1)n2CCN1CCC1 [Compound 14] as the molecule, how does the ΔTm at 10 µM (BRD4(1) [5]) read?
A: 2.6 °C

Q: What about the ΔTm at 10 µM (CBP [6]) of the same molecule?
A: 4.4 °C

Q: What about the IC50 (CBP [7]; read-out: AlphaScreen IC50 CBP) of the same molecule?
A: 0.57 µM

Q: What about the IC50 (BRD4(1) [8]) of the same molecule?
A: 22 µM

Q: With Cc1noc(C)c1-c1ccc2c(c1)nc(CCc1ccccc1)n2CCN1CCOCC1 [Compound 17] as the molecule, how does the ΔTm at 10 µM (BRD4(1) [5]) read?
A: 2.1 °C

Q: What about the “DSF ΔTm BRD4(1)” value (BRD4(1) [5]; 10 µM) of the same molecule?
A: 2.7 °C

Q: What about the “FRAP half-time of fluorescence recovery (t1/2), GFP-tagged 3× CBP BRD” value [4] of the same molecule?
A: 0.66 s

Q: What about the ΔTm at 10 µM (CBP [6]) of the same molecule?
A: 3.9 °C

Q: And the “DSF ΔTm CBP” value (CBP [6]; 10 µM)?
A: 6.5 °C

Q: What about the IC50 (CBP [7]; [13]) of the same molecule?
A: 0.158 µM

Q: What about the IC50 (CBP [7]; read-out: AlphaScreen IC50 CBP) of the same molecule?
A: 0.82 µM

Q: What about the ΔTm at 10 µM (ATAD2 [9]) of the same molecule?
A: 0.16 °C

Q: What about the Kd (BRD4(1) [10]; ITC Kd BRD4(1), 15 °C) of the same molecule?
A: 0.95 ± 0.044 µM

Q: What about the “Selectivity for CBP over BRD4(1)” value (BRD4(1) [10]; from ITC Kd values) of the same molecule?
A: 3.0 fold

Q: What about the IC50 (ATAD2 [11]) of the same molecule?
A: 42 µM

Q: What about the IC50 (BRD4(1) [8]) of the same molecule?
A: 9.8 µM

Q: What about the “Selectivity for p300 over BRD4(1)” value (p300) of the same molecule?
A: 2.7 fold

Q: Which ΔTm at 10 µM (BRD4(1) [5]) does the source give for Cc1noc(C)c1-c1ccc2c(c1)nc(CCc1ccccc1)n2CCN1CCNCC1 [Compound 19] here?
A: 4 °C

Q: And the ΔTm at 10 µM (CBP [6])?
A: 6.5 °C

Q: What about the IC50 (CBP [7]; read-out: AlphaScreen IC50 CBP) of the same molecule?
A: 0.75 µM

Q: What about the IC50 (BRD4(1) [8]) of the same molecule?
A: 7.5 µM

Q: For Cc1noc(C)c1-c1ccc2c(c1)nc(CCc1ccccc1)n2CCN1CCSCC1 [Compound 20], which ΔTm at 10 µM (BRD4(1) [5]) is on record?
A: 3.9 °C

Q: And the ΔTm at 10 µM (CBP [6])?
A: 6.6 °C

Q: And the IC50 (CBP [7]; read-out: AlphaScreen IC50 CBP)?
A: 0.44 µM

Q: What about the IC50 (BRD4(1) [8]) of the same molecule?
A: 9.5 µM

Q: Which results are given for Cc1ccc(CCc2nc3cc(-c4c(C)noc4C)ccc3n2CCN2CCOCC2)cc1 [Compound 25]?
A: ΔTm at 10 µM (CBP [6]): 7.4 °C; ITC N (molar binding ratio of the ligand-protein interaction), CBP (CBP [12]): 1.02 ± 0.00208; ITC ∆G, CBP (CBP [12]): -9.63 kcal/mol; ITC ∆H, CBP (CBP [12]): -9.70 ± 0.0399 kcal/mol; ITC 9T∆S, CBP (CBP [12]; At T = 298.15 K): 0.0674 kcal/mol; Kd (CBP [12]; ITC Ka, CBP): 0.0495 µM; ITC N (molar binding ratio of the ligand-protein interaction), BRD4(1) (BRD4(1) [10]): 0.987 ± 0.0033; ITC ∆G, BRD4(1) (BRD4(1) [10]): -8.24 kcal/mol; ITC ∆H, BRD4(1) (BRD4(1) [10]): -8.74 ± 0.0402 kcal/mol; ITC 9T∆S, BRD4(1) (BRD4(1) [10]; At T = 298.15 K): 0.501 kcal/mol; Kd (BRD4(1) [10]; ITC Ka, BRD4(1)): 0.546 µM
